Measurements taken from patent US9506039B2, “Efficient method for establishing induced pluripotent stem cells” (Kyoto University, priority 2010, dated 2016).

B1: Wnt3a: Wnt3a purchased from R&D systems Inc., added to the medium (protein, UniProt P56704 19-352, looked up)
Protein Wnt-3a: SYPIWWSLAVGPQYSSLGSQPILCASIPGLVPKQLRFCRNYVEIMPSVAEGIKIGIQECQHQFRGRRWNCTTVHDSLAIFGPVLDKATRESAFVHAIASAGVAFAVTRSCAEGTAAICGCSSRHQGSPGKGWKWGGCSEDIEFGGMVSREFADARENRPDARSAMNRHNNEAGRQAIASHMHLKCKCHGLSGSCEVKTCWWSQPDFRAIGDFLKDKYDSASEMVVEKHRESRGWVETLRPRYTYFKVPTERDLVYYEASPNFCEPNPETGSFGTRDRTCNVSSHGIDGCDLLCCGRGHNARAERRREKCRCVFHWCCYVSCQECTRVYDVHTCK

test system: human dermal fibroblasts (HDF: cell name 1616); assay: iPS cell colony establishment, 3 genes (Oct3/4, Sox2, Klf4) plus added gene or compound; assay type: cell-based; conditions: Example 9, FIG. 9; Oct3/4, Sox2, Klf4 plus agent in medium (PS48 10 μM, CHIR99021 1 μM, Wnt3a 10 ng/ml); day 32
Source text: The following genes were introduced into human dermal fibroblasts (HDF: cell name 1616, purchased from Cell applications, Inc.) in the same manner as in the aforementioned Example 1.
In addition, the culture condition was changed (5×10^5 cells/well), and the following genes were introduced into human dermal fibroblasts (HDF: cell name 1616, purchased from Cell applications, Inc.) in the same manner.
In the same manner as in the aforementioned Example 1, the following genes were introduced into dermal fibroblasts (HDF: cell name 1616) in the presence of each low-molecular-weight compound.
The following genes were introduced into dermal fibroblasts (HDF: cell name 1616) in the same manner as in the aforementioned Example 1.
The following genes were introduced into human dermal fibroblasts (HDF: cell name 1616) in the same manner as in the aforementioned Example 1.
Furthermore, the following genes were introduced into human dermal fibroblasts (HDF: cell name 1616).

Molecule	number of human iPS cell colonies
Cc1c[nH]c(-c2cnc(NCCNc3ccc(C#N)cn3)nc2-c2ccc(Cl)cc2Cl)n1 [CHIR99021]	tended to decrease
O=C(O)/C=C(/CCc1ccc(Cl)cc1)c1ccccc1 [PS48]	increased significantly
B1	increased significantly
